Source: US20100120690A1, “Polypeptides Having Antimicrobial Activity and Polynucleotides Encoding Same” (Novozymes Adenium Biotech A/S, priority 2005, published 2010)

Experiments:
[1] = tested on: panel of 6 different strains of Staphylococcus aureus; test: Average MIC, NCCLS/CLSI guidelines using caMHB (Example 6); format: cell-based; details: average over 6 S. aureus strains, duplicate; MIC above 32 counted as 64; read after 18-24 hours at 37° C.
Procedure, shortened: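 MICs were determined by broth dilution per NCCLS/CLSI in caMHB against six S. aureus strains (four MSSA, two MRSA), with peptides at 0.03–32 microgram/mL, read after 18-24 h at 37° C. Each was tested in duplicate and the two results averaged; MICs above 32 micrograms/mL were counted as 64.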

[2] = tested on: Staphylococcus aureus, ATCC 29737; test: MIC, NCCLS/CLSI guidelines (Example 5), strain C; format: cell-based; details: average of two independent experiments
Procedure, shortened: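 Expressed, purified plectasin wild-type and variant peptides were tested for minimal inhibitory concentration under NCCLS/CLSI guidelines. Values are the mean of two independent experiments, scored relative to wild-type plectasin MIC: 0 >100%, 1 80-100%, 2 50-80%, 3 <50%.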

[3] = tested on: Staphylococcus aureus, MRSA ST5 (2001); test: MIC, NCCLS/CLSI guidelines (Example 5), strain D; format: cell-based; details: average of two independent experiments
Procedure, shortened: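 Scores express each variant's MIC as a fraction of wild-type plectasin MIC (0: >100%; 1: 80-100%; 2: 50-80%; 3: <50%), averaged over two independent runs. Purified recombinant peptides; MIC by the CLSI (formerly NCCLS) method.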

S. aureus = test: Minimal Inhibitory Concentration, NCCLS guidelines (Example 4); format: cell-based, Staphylococcus aureus; details: purified peptide
Experimental: The Minimal Inhibitory Concentration (MIC, micrograms/mL) was determined to test for their antimicrobial activity following the NCCLS guidelines (Clinical and Laboratory Standards Institute; formerly known as National Committee for Clinical and Laboratory Standards).

B. subtilis = test: Minimal Effective Concentration (MEC) assay; format: cell-based, Bacillus subtilis
Experimental: Three antimicrobial polypeptides, which are variants of SEQ ID NO: 1, were tested for antimicrobial activity. A Minimal Effective Concentration assay (MEC, expressed as micrograms/mL) against different microorganisms was performed using the three plectasin mutants, Y40YR, N17R and Y25R following the protocol described in the book of Methods in Molecular Biology, Vol. 78, Antibacterial peptide protocol William M. Shafer, Human Press.

[4] = tested on: Staphylococcus carnosus ATCC51365; test: Yeast screening assay: radial diffusion assay of yeast supernatants; format: cell-based; design: key: An activity of 3 is better than Plectasin; An activity of 2 corresponds to the activity of Plectasin; 1 is worse than Plectasin; details: yeast supernatant, clearing zone in radial diffusion assay
Procedure, shortened: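 Supernatants from S. cerevisiae expressing plectasin variants, grown 3 days at 30 °C in galactose medium, were applied to agarose containing 5×10^5 cfu/mL S. carnosus. Plates were incubated 3 h at 37 °C, overlaid, left overnight and MTT-stained. Clearing zones were scored as 2 = plectasin-like, 3 = better, 1 = worse.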

GFGCNGPWDEDDMQCHNHCKSIKGYKGGYCAKGGFVCKCY (listed as Pseudoplectania nigrella) [wildtype, wildtype plectasin, parent antimicrobial polypeptide, reference compound]
Average MIC [1]: 14 micrograms/mL | MIC, strain C [2]: (4 μg/mL) | Relative MIC, strain C ([2]; relative to wildtype Plectasin): 1 (80-100% of Plectasin wildtype MIC) | MIC, strain D [3]: (15 μg/mL) | Relative MIC, strain D ([3]; relative to wildtype Plectasin): 1 (80-100% of Plectasin wildtype MIC) | MIC against S. aureus (S. aureus): 8 micrograms/mL | MEC against B. subtilis (B. subtilis): 0.09 micrograms/mL | Activity (antimicrobial activity relative to the activity of plectasin) [4]: 2
